According to EP3079693B1 (priority 2013, dated 2015):

Assays:
[1] = system: influenza A/Puerto Rico/8/34 (H1N1) virus; assay type: cell-based
[2] = system: influenza A/WS/1933 (H1N1); assay type: cell-based
[3] = system: H3N2 serotype A/Aichi/2/68; assay type: cell-based, influenza A
[4] = system: influenza A; assay type: cell-based
[5] = system: influenza A/Puerto Rico/8/34; assay: In vivo survival study after live infection; design: species or system Balb/C mice; conditions: 3 doses, 2xLD50 intranasal challenge, survival = 70% or more of starting weight
Procedure: In Vivo Survival Studies: Groups of 5 Balb/C mice ([…]) were weighed prior to the start of study and injected intravenously at the base of the tail with formulations containing A0435 at doses of 3.17, 1, or 0 mg/kg in phosphate buffered saline containing 3% w/v mouse serum albumin. Four hours later, these mice were challenged intranasally with 2xLD50 of influenza A/Puerto Rico/8/34 under anesthesia. Identical doses of A0435 were administered 24 and 48 hours after the initial dose administration and animal weights were monitored daily. Surviving animals were defined as those who maintained 70% or more of their starting weight.

[6] = system: influenza B; assay: Inhibition of influenza B (method not described)
[7] = system: liver-derived HepG2 cells
[8] = system: primary renal proximal tubule epithelial cells (or RPTEC)
[9] = molecular target: influenza A RNA-dependent RNA polymerase (Influenza A virus, UniProt P03428+P03431+P03433); assay: cell-based
[10] = system: constitutive gene expression; assay: Counter screen: separate reporter system with cell death-activated reporter construct (constitutive gene expression); conditions: counter-screen assay, dose titration

SMILES: CCc1c(C)nc2cc(-c3ccc(OC)c(OC)c3)nn2c1NCCc1ccccn1 [A0435, 2-(3,4-dimethoxyphenyl)-6-ethyl-5-methyl-N-[2(pyridin-2-yl)ethyl]pyrazolo[1,5-a]pyrimidin-7-amine]
- concentrations with significant antiviral activity [1]: > 4 µM
- inhibition of virus [2]: significantly inhibited
- inhibition of virus [3]: significantly inhibited
- cytopathic effects characteristic of influenza A infection [4]: little to no signs of the cytopathic effects
- animals survived infection at day 7 post-infection ([5]; 1 mg/kg intravenously): 2/5
- animals survived infection at day 7 post-infection ([5]; 3.17 mg/kg intravenously): 3/5
- inhibition of influenza B [6]: inhibitable
- tolerability in cellular model of toxicity [7]: well-tolerated
- tolerability in cellular model of toxicity [8]: well-tolerated
- IC50 [9]: ~3 µM
- inhibitory impact on the level of constitutive gene expression [10]: no visible inhibitory impact
